Among the test systems are CCRF-CEM; M14; UACC-257; RXF 393; SNB-19; SK-MEL-28; HL-60; Malme-3M; A498; HOP-92; ACHN; NCI-H23; SK-OV-3; HT-29; RPMI-8226; HCT-116; K562; OVCAR-8.
Test in all cases: NCI-60 cell line screen, 48 h

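96-well plates; 48 h exposure; 5 concentrations. Endpoints by linear interpolation between flanking doses. Not reached: highest tested concentration assigned. GI50: concentration for 50% inhibition of growth.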 The source made the active and inactive calls. No stated cut-off is given here; in the data, active = GI50 up to about 1.1 µM and inactive = higher.

For `CC1=CC(=O)NP(=O)(Oc2ccc(Cl)cc2)N1` (stereo not drawn), the GI50 with CCRF-CEM, with M14, in the experiment with UACC-257, in the experiment with RXF 393, in the experiment on SNB-19 and in the experiment with SK-MEL-28 was > 100 µM (inactive) in each case. Moreover, the GI50 with HL-60 is 55.6 µM (inactive); in the experiment with Malme-3M, > 100 µM (inactive); in the experiment on A498 it was > 100 µM (inactive); with HOP-92 it was > 100 µM (inactive); with ACHN it was > 100 µM (inactive); in the experiment with NCI-H23, > 100 µM (inactive). The GI50 in the experiment on SK-OV-3 was > 100 µM (inactive); in the experiment with HT-29, > 100 µM (inactive); with RPMI-8226 it was > 100 µM (inactive); in the experiment on HCT-116, > 100 µM (inactive); in the experiment with K562, 89.3 µM (inactive); with OVCAR-8, > 100 µM (inactive).
Regarding `C=C1Cc2cc(OC)c(OC)c(OC)c2-c2ccc(SC)c(=O)cc21`, the GI50 with CCRF-CEM is < 0.01 µM (active); in the experiment with M14, < 0.01 µM (active); in the experiment on UACC-257, 0.361 µM (active); in the experiment on RXF 393, < 0.01 µM (active); with SK-MEL-28 it was < 0.01 µM (active); in the experiment on HL-60, < 0.01 µM (active). Also, the GI50 in the experiment on Malme-3M, in the experiment on A498, in the experiment with ACHN, in the experiment with NCI-H23, in the experiment with SK-OV-3 and in the experiment on HT-29 was < 0.01 µM (active) in each case. For the same molecule, the GI50 in the experiment with RPMI-8226, with HCT-116, in the experiment with K562 and in the experiment on OVCAR-8 was < 0.01 µM (active) in each case.
Consider `Cc1ccc(S(=O)(=O)N[C@H](C(=O)O)c2ccccc2)cc1`, for which the GI50 with CCRF-CEM, in the experiment on M14, with UACC-257, in the experiment with RXF 393, with SNB-19 and in the experiment on SK-MEL-28 was > 100 µM (inactive) throughout. In addition, the GI50 in the experiment with HL-60, with Malme-3M, with A498, in the experiment with HOP-92, in the experiment with ACHN and in the experiment with NCI-H23 was > 100 µM (inactive) each time. The GI50 with SK-OV-3 was > 100 µM (inactive); in the experiment with HT-29, > 100 µM (inactive); in the experiment on RPMI-8226 it was 26.8 µM (inactive); in the experiment with K562, > 100 µM (inactive); in the experiment with OVCAR-8, > 100 µM (inactive).
`O=[N+]([O-])c1cccc(C2SCc3nc4ccccc4n32)c1` (stereo not drawn): the GI50 was > 100 µM (inactive) in the experiment on CCRF-CEM; 39.3 µM (inactive) in the experiment on UACC-257; 73.5 µM (inactive) with RXF 393; > 100 µM (inactive) in the experiment with SNB-19; > 100 µM (inactive) with SK-MEL-28; 54.3 µM (inactive) in the experiment with HL-60. Moreover, the GI50 is 54.1 µM (inactive) in the experiment with Malme-3M; 77.6 µM (inactive) in the experiment with A498; 19 µM (inactive) in the experiment on HOP-92; 62.7 µM (inactive) with ACHN; 64.4 µM (inactive) in the experiment with NCI-H23; > 100 µM (inactive) in the experiment with SK-OV-3. The GI50 with HT-29 was > 100 µM (inactive); with K562, 49.5 µM (inactive); with OVCAR-8, > 100 µM (inactive).
Consider `N/N=C1\C(=O)N(Cc2ccccc2)C(=O)C1C(=O)NCc1ccccc1` (stereo not drawn), for which the GI50 in the experiment with CCRF-CEM, in the experiment on M14, in the experiment with UACC-257, in the experiment with RXF 393, with SNB-19 and in the experiment on SK-MEL-28 was > 100 µM (inactive) in each case. Further, the GI50 in the experiment with HL-60, in the experiment on Malme-3M, in the experiment with A498, in the experiment on HOP-92, in the experiment on ACHN and with NCI-H23 was > 100 µM (inactive) each time. Further, the GI50 in the experiment on HT-29, in the experiment with RPMI-8226, in the experiment on HCT-116, in the experiment with K562 and with OVCAR-8 was > 100 µM (inactive) in each case.
On to `O=C1C(c2ccccc2)=C(c2ccccc2)[C@H](c2ccccc2)[C@]1(Cc1nnn(-c2ccc([N+](=O)[O-])cc2)c1N1CCOCC1)c1ccccc1`, for which the GI50 was > 37.5 µM (inactive) with CCRF-CEM; > 37.5 µM (inactive) with M14; > 37.5 µM (inactive) in the experiment with UACC-257; 9.62 µM (inactive) in the experiment on RXF 393; 35.9 µM (inactive) in the experiment on SNB-19; > 37.5 µM (inactive) in the experiment on SK-MEL-28. Besides, the GI50 was > 37.5 µM (inactive) in the experiment on HL-60; > 37.5 µM (inactive) in the experiment with A498; 0.00621 µM (active) in the experiment with HOP-92; 14.5 µM (inactive) with ACHN; > 37.5 µM (inactive) in the experiment on NCI-H23; > 37.5 µM (inactive) with SK-OV-3. The GI50 was > 37.5 µM (inactive) in the experiment with HT-29; > 37.5 µM (inactive) in the experiment with RPMI-8226; 28.7 µM (inactive) in the experiment with HCT-116; > 37.5 µM (inactive) in the experiment on K562; > 37.5 µM (inactive) in the experiment with OVCAR-8.
Turning to `Cc1cc(C(=O)NCCN(C)C)c2nc3ccccc3nc2c1`, the GI50 is 4.98 µM (inactive) in the experiment with M14; 4.16 µM (inactive) in the experiment on UACC-257; 5.37 µM (inactive) in the experiment on RXF 393; 6.79 µM (inactive) with SNB-19; 5.05 µM (inactive) in the experiment with SK-MEL-28; 3.41 µM (inactive) with HL-60. Also, the GI50 was 3.21 µM (inactive) in the experiment on Malme-3M; 3.92 µM (inactive) in the experiment with A498; 1.06 µM (active) in the experiment on HOP-92; 2.22 µM (inactive) with ACHN; 5.27 µM (inactive) with NCI-H23; 11.7 µM (inactive) with SK-OV-3. In addition, the GI50 in the experiment on HT-29 was 2.67 µM (inactive); in the experiment with RPMI-8226, 3.15 µM (inactive); in the experiment with HCT-116, 1.48 µM (inactive); in the experiment on K562 it was 2.05 µM (inactive); with OVCAR-8, 4.81 µM (inactive).
For `CC(Oc1ccc(OCC2CCCCC2)cc1)C(=O)OCC(=O)c1ccc(-c2ccccc2)cc1` (stereo not drawn), the GI50 with CCRF-CEM, in the experiment on M14, with UACC-257, in the experiment on RXF 393, in the experiment with SNB-19 and in the experiment with SK-MEL-28 was > 100 µM (inactive) throughout. The GI50 with HL-60, in the experiment with Malme-3M, in the experiment on A498, in the experiment with ACHN, with NCI-H23 and in the experiment on SK-OV-3 was > 100 µM (inactive) in each case. The GI50 in the experiment on HT-29, in the experiment on HCT-116, in the experiment on K562 and in the experiment with OVCAR-8 was > 100 µM (inactive) each time.
